Reference: paper PMC10945555, “Improving Activity of New Arylurea Agents against Multidrug-Resistant and Biofilm-Producing Staphylococcus epidermidis” (ACS Medicinal Chemistry Letters, 2024)
Values after ≈ are worked out from the molar mass of the structure shown.

Legend:
[1] = test system: Staphylococcus epidermidis ATCC 12228; experiment: MIC, broth microdilution, MSSE reference strain; format: cell-based; conditions: ATCC12228, Staphylococcus epidermidis ATCC 12228, read-out: MIC MSSE
Source text: These strains included susceptible, multidrug-resistant, and biofilm-producing strains of S. epidermidis and S. aureus (MSSE, MDR/BPSE, and MDR/BPSA, respectively). The cornerstone antibiotic linezolid served as a positive control (Table 1). The impact of structural modifications at the aryloxy fragment and the aromatic moiety bound to the propyl linker on the inhibitory activity was initially investigated. […] Further optimization focused on evaluating the impact of the type of substituent and its position on the arylsulfonamide fragment’s activity.
2 Biological assay protocols
Microbiological tests were carried out under aseptic conditions in a laminar chamber of the 2nd […]
(BioTectum 1.2, Alchem Poland). The assessment of antimicrobial activity was carried out for final compounds in the form of free bases, soluble in DMSO (Merck, Germany), at the initial […]
concentration of 1 mg/mL. […]
were provided by Cayman Chemical, USA.
The activity of all newly synthesized compounds was tested in vitro on a panel of selected reference strains from the American Type Culture Collection (ATCC) of Gram-positive […]
2.2 Effect of evaluated compounds on planktonic cells
The susceptibility of three reference bacterial strains (Staphylococcus epidermidis ATCC […]
Table S1) and 81 clinical MDR S. epidermidis (Table S2) to the tested compounds was assessed by determining the MIC value (Minimal Inhibitory Concentration) by microdilution in a liquid medium in 96-well flat-bottom cell culture plates (Nest Biotechnology Scientific, USA). The antibacterial properties of the compo unds were tested in the concentration range from 50 µg/mL to 0.1 µg/mL by making a series of double dilutions of the compound in liquid Mueller -Hinton II Broth Cation Adjusted (MHB II, BBL TM, USA) according to the European Committee on […]
Antimicrobial Susceptibility Testing guidelines (EUCAST).2,3 The determinations were performed twice. The MIC50 and MIC90 values were determined for each of the tested

[2] = test system: biofilm-producing Staphylococcus epidermidis strains; experiment: Inhibition of biofilm formation (MBIC, resazurin); format: cell-based
Experimental: After 24 hours incubation each well of
concentration of 4 mg/mL was added. […]

H9c2 cells = experiment: Cytotoxicity, MTT assay, cardiomyocytes; format: cell-based; conditions: Rattus norvegicus, 24 h, n = 3
Experimental: (§1) The following cell models were used in the research: rat cardiomyocytes (H9c2 line) and human skin fibroblasts (BJ line). All cell lines used in the work are commercially available and were purchased from ATCC banks (the American Type Culture Collection, Manassas, VI, USA). Cell cultures were carried out in an incubator under standard conditions (37°C, 5% CO 2).
(§2) Culture media (Dulbecco's Modified Eagle's Medium -DMEM (H9c2) and Eagle's Minimum Essential Medium-EMEM (BJ) were supplemented with 10% bovine serum and a 1% mixture of penicillin and streptomycin antibiotics. […]
(§3) doxorubicin (a cytotoxic drug) were used as reference and positive control, respectively. […]
(§4) incubated with studied compound in appropriate concentration for next 24 h. Then MTT solution (5 mg/mL) was transferred into culture medium of incubated cells. After 3 h, once dark crystals of formazan were produced in cells, medium was aspirated and 100 μ L of DMSO was added to dissolve formazan. Absorbance of DMSO solution was read on a multiwell plate reader (Spectra Max iD3, Molecular Devices) at 570 nm. In order to determine viability, absorbance of experimental wells was divided by absorbance of contro l well (not treated) and multiplied by 100 (%). Three separate experiments were performed. IC 50 was calculated using non-linear regression method in OriginPro software. […]

BJ cells = experiment: Cytotoxicity, MTT assay, skin fibroblasts; format: cell-based, human; conditions: Homo sapiens, MTT, 24 h, n = 3
Experimental: as §1, §2, §3
as §4, with “solution” for “incubated with studied compound in appropriate concentration for next 24 h. Then MTT solution”

[3] = S. epidermidis ATCC 35984 (Table S4)
[4] = clinical strain 25 (Table S4, Figure 2)

CC(=O)NC[C@H]1CN(c2ccc(N3CCOCC3)c(F)c2)C(=O)O1 [linezolid, reference compound]
MIC [1]: 0.8 µg/mL (≈ 2.37 µM) | MBIC [2, 3]: 15.6 µg/mL | MBIC50 ([2]; Table S4 strains): 25 µg/mL | MBIC90 ([2]; Table S4 strains): 50 µg/mL | MBIC ([2]; clinical strain 1 (Table S4)): 15.6 µg/mL | MBIC ([2]; clinical strain 2 (Table S4)): 50 µg/mL | MBIC ([2]; clinical strain 3 (Table S4)): 50 µg/mL | MBIC ([2]; clinical strain 4 (Table S4)): 50 µg/mL | MBIC ([2]; clinical strain 5 (Table S4)): 15.6 µg/mL | MBIC ([2]; clinical strain 6 (Table S4)): 15.6 µg/mL | MBIC ([2]; clinical strain 7 (Table S4)): 50 µg/mL | MBIC ([2]; clinical strain 8 (Table S4)): 12.5 µg/mL | MBIC ([2]; clinical strain 9 (Table S4)): 50 µg/mL | MBIC ([2]; clinical strain 11 (Table S4)): 50 µg/mL | MBIC ([2]; clinical strain 12 (Table S4)): 50 µg/mL | MBIC ([2]; clinical strain 13 (Table S4)): 6.25 µg/mL | MBIC ([2]; clinical strain 15 (Table S4)): 50 µg/mL | MBIC ([2]; clinical strain 16 (Table S4)): 15.6 µg/mL | MBIC ([2]; clinical strain 17 (Table S4)): 25 µg/mL | MBIC ([2]; clinical strain 19 (Table S4)): 25 µg/mL | MBIC ([2]; clinical strain 21 (Table S4)): 50 µg/mL | MBIC ([2]; clinical strain 22 (Table S4)): 50 µg/mL | MBIC ([2]; clinical strain 23 (Table S4)): 12.5 µg/mL | MBIC [2, 4]: 12.5 µg/mL | MBIC ([2]; clinical strain 26 (Table S4)): 50 µg/mL | MBIC ([2]; clinical strain 27 (Table S4)): 50 µg/mL | MBIC ([2]; clinical strain 28 (Table S4)): 25 µg/mL | MBIC ([2]; clinical strain 29 (Table S4)): 25 µg/mL | MBIC ([2]; clinical strain 30 (Table S4)): 6.25 µg/mL | MBIC ([2]; clinical strain 33 (Table S4)): 50 µg/mL | MBIC ([2]; clinical strain 35 (Table S4)): 50 µg/mL | MBIC ([2]; clinical strain 36 (Table S4)): 25 µg/mL | MBIC ([2]; clinical strain 37 (Table S4)): 50 µg/mL | MBIC ([2]; clinical strain 39 (Table S4)): 6.25 µg/mL | MBIC ([2]; clinical strain 40 (Table S4)): 25 µg/mL | MBIC ([2]; clinical strain 41 (Table S4)): 50 µg/mL | MBIC ([2]; clinical strain 42 (Table S4)): 50 µg/mL | MBIC ([2]; clinical strain 43 (Table S4)): 25 µg/mL | MBIC ([2]; clinical strain 44 (Table S4)): 25 µg/mL | MBIC ([2]; clinical strain 45 (Table S4)): 50 µg/mL | MBIC ([2]; clinical strain 46 (Table S4)): 50 µg/mL | MBIC ([2]; clinical strain 47 (Table S4)): 25 µg/mL | MBIC ([2]; clinical strain 49 (Table S4)): 25 µg/mL | MBIC ([2]; clinical strain 51 (Table S4)): 50 µg/mL | MBIC ([2]; clinical strain 55 (Table S4)): 50 µg/mL | MBIC ([2]; clinical strain 58 (Table S4)): 50 µg/mL | MBIC ([2]; clinical strain 59 (Table S4)): 50 µg/mL | MBIC ([2]; clinical strain 65 (Table S4)): 50 µg/mL | MBIC ([2]; clinical strain 66 (Table S4)): 25 µg/mL | MBIC ([2]; clinical strain 67 (Table S4)): 50 µg/mL | MBIC ([2]; clinical strain 70 (Table S4)): 50 µg/mL | MBIC ([2]; clinical strain 73 (Table S4)): 15.6 µg/mL | MBIC ([2]; clinical strain 74 (Table S4)): 25 µg/mL | MBIC ([2]; clinical strain 75 (Table S4)): 25 µg/mL | MBIC ([2]; clinical strain 78 (Table S4)): 15.6 µg/mL | MBIC ([2]; clinical strain 79 (Table S4)): 15.6 µg/mL | IC50 (H9c2 cells): 16.9 µg/mL (≈ 50.1 µM)

O=S(=O)(NC1CCN(CCC(Oc2ccc(C(F)(F)F)cc2)c2cccs2)CC1)c1cccc(Cl)c1 (stereo not drawn) [Compound 14]
MBIC [2, 3]: 31.25 µg/mL | MBIC50 ([2]; Table S4 strains): 125 µg/mL | MBIC ([2]; clinical strain 1 (Table S4)): 31.25 µg/mL | MBIC ([2]; clinical strain 2 (Table S4)): 125 µg/mL | MBIC ([2]; clinical strain 3 (Table S4)): 125 µg/mL | MBIC ([2]; clinical strain 4 (Table S4)): 125 µg/mL | MBIC ([2]; clinical strain 5 (Table S4)): 62.5 µg/mL | MBIC ([2]; clinical strain 6 (Table S4)): 125 µg/mL | MBIC ([2]; clinical strain 7 (Table S4)): 125 µg/mL | MBIC ([2]; clinical strain 8 (Table S4)): 15.6 µg/mL | MBIC ([2]; clinical strain 9 (Table S4)): 125 µg/mL | MBIC ([2]; clinical strain 11 (Table S4)): 125 µg/mL | MBIC ([2]; clinical strain 12 (Table S4)): 125 µg/mL | MBIC ([2]; clinical strain 13 (Table S4)): 62.5 µg/mL | MBIC ([2]; clinical strain 15 (Table S4)): 125 µg/mL | MBIC ([2]; clinical strain 16 (Table S4)): 31.25 µg/mL | MBIC ([2]; clinical strain 17 (Table S4)): 62.5 µg/mL | MBIC ([2]; clinical strain 19 (Table S4)): 31.25 µg/mL | MBIC ([2]; clinical strain 21 (Table S4)): 125 µg/mL | MBIC ([2]; clinical strain 22 (Table S4)): 125 µg/mL | MBIC ([2]; clinical strain 23 (Table S4)): 7.8 µg/mL | MBIC [2, 4]: 31.25 µg/mL | MBIC ([2]; clinical strain 26 (Table S4)): 125 µg/mL | MBIC ([2]; clinical strain 27 (Table S4)): 250 µg/mL | MBIC ([2]; clinical strain 28 (Table S4)): 62.5 µg/mL | MBIC ([2]; clinical strain 29 (Table S4)): 62.5 µg/mL | MBIC ([2]; clinical strain 30 (Table S4)): 62.5 µg/mL | MBIC ([2]; clinical strain 33 (Table S4)): 125 µg/mL | MBIC ([2]; clinical strain 35 (Table S4)): 125 µg/mL | MBIC ([2]; clinical strain 36 (Table S4)): 62.5 µg/mL | MBIC ([2]; clinical strain 37 (Table S4)): 125 µg/mL | MBIC ([2]; clinical strain 39 (Table S4)): 15.6 µg/mL | MBIC ([2]; clinical strain 40 (Table S4)): 31.25 µg/mL | MBIC ([2]; clinical strain 41 (Table S4)): 125 µg/mL | MBIC ([2]; clinical strain 42 (Table S4)): 125 µg/mL | MBIC ([2]; clinical strain 43 (Table S4)): 250 µg/mL | MBIC ([2]; clinical strain 44 (Table S4)): 62.5 µg/mL | MBIC ([2]; clinical strain 45 (Table S4)): 125 µg/mL | MBIC ([2]; clinical strain 46 (Table S4)): 125 µg/mL | MBIC ([2]; clinical strain 47 (Table S4)): 62.5 µg/mL | MBIC ([2]; clinical strain 49 (Table S4)): 31.25 µg/mL | MBIC ([2]; clinical strain 51 (Table S4)): 125 µg/mL | MBIC ([2]; clinical strain 55 (Table S4)): 125 µg/mL | MBIC ([2]; clinical strain 58 (Table S4)): 125 µg/mL | MBIC ([2]; clinical strain 59 (Table S4)): 125 µg/mL | MBIC ([2]; clinical strain 65 (Table S4)): 125 µg/mL | MBIC ([2]; clinical strain 66 (Table S4)): 125 µg/mL | MBIC ([2]; clinical strain 67 (Table S4)): 125 µg/mL | MBIC ([2]; clinical strain 70 (Table S4)): 125 µg/mL | MBIC ([2]; clinical strain 73 (Table S4)): 31.25 µg/mL | MBIC ([2]; clinical strain 74 (Table S4)): 125 µg/mL | MBIC ([2]; clinical strain 75 (Table S4)): 31.25 µg/mL | MBIC ([2]; clinical strain 78 (Table S4)): 15.6 µg/mL | MBIC ([2]; clinical strain 79 (Table S4)): 31.25 µg/mL | IC50 (BJ cells): 9.9 µg/mL (≈ 17.7 µM) | IC50 (H9c2 cells): 28 µg/mL (≈ 50.1 µM)

O=S(=O)(NC1CCN(CCC(Oc2ccc(C(F)(F)F)cc2)c2cccs2)CC1)c1cccc(C(F)(F)F)c1 (stereo not drawn) [Compound 21]
MIC [1]: ≤ 6.25 µg/mL
